According to patent publication US20230190717A1, “P38 GAMMA INHIBITORS AND METHOD OF USE THEREOF” (City of Hope, priority 2017, published 2023):
pIC50: −log10 of the molar value. Read-outs that look alike come from different tables or passages of the source.

Legend:
p38δ [1] = target: T1, p38δ (Homo sapiens, UniProt O15264); test: ADP-Glo in vitro kinase assay, p38δ; assay type: biochemical; design: human recombinant p38 α, β, γ or δ protein (active full-length); purchased SignalChem; host or cells: baculovirus in Sf9 insect cells
T1 sequence (O15264 1-365): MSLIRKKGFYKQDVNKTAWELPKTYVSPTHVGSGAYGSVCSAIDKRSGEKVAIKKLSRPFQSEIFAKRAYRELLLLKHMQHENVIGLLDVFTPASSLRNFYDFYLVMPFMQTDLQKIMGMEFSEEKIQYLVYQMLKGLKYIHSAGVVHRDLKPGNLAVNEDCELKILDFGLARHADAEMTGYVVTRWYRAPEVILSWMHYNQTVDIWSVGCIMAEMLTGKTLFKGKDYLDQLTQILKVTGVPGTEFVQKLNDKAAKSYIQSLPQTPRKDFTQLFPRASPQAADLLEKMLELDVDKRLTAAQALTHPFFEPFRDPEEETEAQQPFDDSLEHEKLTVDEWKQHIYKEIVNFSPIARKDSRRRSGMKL
Method: Kinase assay in vitro: Kinase enzyme assays in vitro were performed using ADP-Glo kit (Promega, Wis.). The luminescent ADP-Glo kinase assay measures ADP produced from ATP consumption in a kinase enzyme reaction. All compounds have been tested and shown no inhibition to luciferase activities. Briefly, in this experiment, human recombinant p38 α, β, γ or δ protein (active full-length) expressed by baculovirus in sf9 insect cells (SignalChem, Vancouver, Canada) was homogenized in wells of white opaque 96-well microplates with the kinase buffer that consisted of 40 mM Tris-HCl (pH 7.5), 20 mM MgCl2, 0.1 mg/mL BSA and 50 μM DTT. […] Next, synthetic peptide substrates ([…]) were added to the mixture at final concentration of 0.2 μg/μL, followed by adding ATP at various concentrations. The 50 μL mixture was reacted at room temperature for 60 min. […]
In vitro kinase assay (ADP-GLO): We identified p38γ inhibitors using in vitro kinase assay by screening a library of kinase inhibitors: The library consists of 244 compounds on three plates (EMD Cat #539744, #539745, and #539746) that are mostly ATP mimics. […] IC50 values were determined using […] software (Biosoft, Cambridge, United Kingdom).

Hut78 cells = test: CellTiterGlo cell viability, Hut78; assay type: cell-based, human
Method: Viability assays using trypan blue exclusion and CellTiterGlo Cell Viability Assay: Cell viability was calculated by diluting cell suspensions 1:1 in 0.4% TRYPAN BLUE solution (Sigma, St. Louis, Mo.) and counting the number of viable cells using a TC20™ automated cell counter (Bio-Rad, Irvine, Calif.) that automatically excludes the number of non-viable cells stained with trypan blue per total cells. […] All data points are an average of triplicate experiments.
Absorbance was monitored at 490 nm using an automated BMG PHERAstar plate reader (BMG Labtech). […] All experiments are repeated in three independent experiments and data represented are the average of triplicate experiments.

p38δ [2] = target: T1, p38δ; test: Radiometric in vitro kinase assay (SignalChem), p38 δ; assay type: biochemical; design: purchased SignalChem (assay service); details: 50 nM
Method: Radiometric in vitro kinase assay: Radiometric in vitro kinase assay was performed by [sequence]

HH cells = test: HH cell proliferation (cell number); assay type: cell-based, human; details: 100 nM and 300 nM, four days
Hut78 xenografts = details: for tumor growth: intraperitoneal, vs vehicle
Method: Female and male 6-week-old NSG mice (NOD-scid IL2Rγ null) were purchased from Jackson Laboratory (Sacramento, Calif.). Hut78 cells were used for developing CTCL xenograft tumors. Briefly, 5 million cells in 100 μL (50% Matrigel/50% PBS) were injected subcutaneously into the right flank of each mouse, and tumor development was monitored every other day. Once the tumors are were palpable and reached 100 mm^3 in volume, treatment was commenced. […] Mice were treated every two days via intraperitoneal injection. Tumors were measured twice per week using calipers.

[3] = test system: phosphorylation of DLGH1 at Ser158; test: Western blot of pDLGH1-Ser158 in CTCL cells; assay type: cell-based, human; details: SS cells, Hut78 and H9 cells; 50-100 nM
Method: Western blot: Western blots were performed as described previously [5]. Rabbit primary antibodies (Cell Signaling Technology (CST), Danvers, Mass.) were used at the following dilutions: anti-p38α, -p38β, -p38γ, and -p38δ (1:1000), anti-B-tubulin (1:2000), anti-p38 GAPDH 1:1000. […] For detection of p38γ protein level in SS patient samples we used a monoclonal antibody that close to N-terminus of human p38γ MAPK (SAPK3) from Abcam ((ab205926).

SS patient cells = test: Cell viability, SS patient cells; assay type: cell-based, human; details: SS patient cells (n=2), 100 nM
Method: Compound, Samples, and Cell Culture: […] Isolation of PBMCs or CD4^+T cells from both patients and healthy donors and culture of CTCL cell lines (Hut78, HH, and H9) were performed as previously described. […] IC50 values were determined using […] software (Biosoft).

[4] = test system: normal CD4+ T cells from healthy donors; test: Cell viability, healthy CD4+ T cells; assay type: cell-based, human; details: 100 nM
Method: Compound, Samples, and Cell Culture: […] Isolation of PBMCs or CD4^+T cells from both patients and healthy donors and culture of CTCL cell lines (Hut78, HH, and H9) were performed as previously described.

SMILES: Cc1ccc([N+](=O)[O-])cc1S(=O)(=O)N(C)/N=C/c1cnc2ccc(Br)cn12 [Compound 1]
- pIC50 (p38δ [1]): 6.92 to 7.49
- cell viability (Hut78 cells; Hut78, 100 nM): significantly reduced viability
- effect on viability of Hut78 cells (Hut78 cells; varying concentrations, 72 hr): dose-dependent inhibition of cell viability
- inhibition at 0.05 µM (p38δ [2]): 5.4%
- proliferation of HH cells (HH cells): sufficiently reduced proliferation
- tumor growth (Hut78 xenografts; 2 mg/kg): statistically significant inhibition of tumor growth
- tumor growth (Hut78 xenografts; 10 mg/kg): further significant reduction of tumor size
- tumor growth (Hut78 xenografts; 10 mg/kg, listed as F7/PIK75): significantly inhibited tumor growth
- toxic effects in animal studies (Hut78 xenografts; mouse, in vivo): did not observe any toxic effects
- phosphorylation of DLGH1 at Ser158 [3]: inhibited phosphorylation of DLGH1 at Ser158
- cell viability (SS patient cells): significantly reduced viability
- cell viability [4]: spared
